In patent US11530197B2, “Analogs for the treatment of disease” (Insilico Medicine IP Limited, priority 2021, dated 2022):

Legend:
[1] = tested on: Collagen I (COL1A1) in LX-2 cells; assay: Collagen and Alpha-SMA in LX-2 (Western blot after TGF-β stimulation); format: cell-based; settings: Homo sapiens, 4 ng/ml TGF-β for 48 hours, Collagen I normalized to GAPDH;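 also: cells serum-starved in 0.4% FBS before treatment, lysates analysed by Western blot, DMSO-only wells as blank and TGF-β alone as maximal induction control, three independent experiments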
Experimental: 3 ml of 0.25% Trypsin-EDTA solution was then added and cells were incubated at 37° C. for 5 min for each T150-flask. 7 ml of culture medium was added to stop trypsinization. The cells were centrifuged at 300×g for 5 min. Supernatant medium was discarded and cells were re-suspended with fresh culture medium. The cells were counted with Cell viability analyzer. 5.0E+05 cells/well were seeded into 6-well plate containing 2.0 mL of culture medium. The cells were cultured overnight at 37° C. The next day, the complete medium was replaced with medium with 0.4% FBS for starvation. […] In parallel, medium containing only DMSO and TGF-β was used as blank control and positive control, respectively. TGF-β induction was used as maximum induction positive control. The culture medium was discarded at the end of induction. Cells were washed once using ice-cold DPBS. RIPA buffer was added to lyse the cells for 20 min. The cells were then scraped off the culture plate, collected in a tube and centrifuged. The supernatant was stored at −80° C. The total amount of protein in the lysate was determined using BCA Protein Assay kit. The cell treatment of fibrosis assay was performed in three independent experiments for each compound.
All the lysate samples were adjusted to the same protein concentration with RIPA buffer after BCA assay. […] The denatured samples were used for electrophoresis. Western blot was performed according to the standard protocols. The same volume of protein was loaded onto 4-12% Bis-Tris gel. Duplicate lysates of samples were loaded onto two gels. The gels were run for 0.5 h at 80 V and 120 V for another 1 h. When the electrophoresis was completed, the gels containing target protein Collagen I (COL1A1) were transferred onto NC membrane using Trans-Blot Electrophoretic Transfer Cell for 90 min at 100 V. The iBlot™ 2 Gel Transfer Device was used to transfer α-SMA and GAPDH at 20 V for 7 min. All the membranes were blocked in TBST buffer with 5% nonfat dry milk in at RT for 1 h and then incubated with primary antibody anti-COL1A1 and anti-α-SMA in TBST buffer containing 5% BSA at 4° C. overnight. For GAPDH detection, the membrane with α-SMA immunoblots were stripped with Restore™ Western Blot Stripping Buffer after detection. And the membranes were re-blocked and then re-probed with primary antibody anti-GAPDH antibody at room temperature (RT) for 2 h. After incubation with primary antibodies, membranes were washed with TBST, then incubated with the secondary antibody at RT for 1 h. Blots were visualized using the instrument Image Quant LAS-4000. The chemiluminescent signals derived from ECL Western blotting reagents were captured. The bands integrated intensity from 16-bit blot images was used for quantitation with the software (1D component of ImageQuant TL). The quantification raw data of the two duplicated gels was obtained from ImageQuant TL. Collagen I and α-SMA proteins expression level was normalized to GAPDH for each gel. The average normalization data of the two duplicated gels was calculated and applied to calculate IC50 using an equation for a sigmoidal dose response (variable slope) of GraphPad™ Prism software. The equation is Y=Bottom+(Top-Bottom)/(1+10^((Log IC50−X)*Hillslope). Note: X is the logarithm of compound concentration, Y is the average normalization data

MAP4K4 (h) = MAP4K4 (h) (Homo sapiens (Human), UniProt O95819); assay: MAP4K4 Human STE Kinase Enzymatic Radiometric Assay; format: biochemical; settings: ATP 200 μM; 40 min at room temperature;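 also: kinase activity remaining relative to the DMSO control, IC50 derived from sigmoidal variable-slope curve fits, no preincubation of compound with enzyme before ATP start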
Experimental: (§1) The reaction is initiated by the addition of the Mg/ATP mix. After incubation for 40 minutes at room temperature, the reaction is stopped by the addition of phosphoric acid to a concentration of 0.5%.
INCUBATION: 40 min at Room temperature
COMPOUND DILUTION SCHEME: All compounds supplied were prepared to a working stock of 50× final assay concentration in 100% DMSO. Where appropriate, more concentrated stocks were diluted manually to 50× using 100% DMSO. Compounds supplied as powders were reconstituted to a 10 mM stock in 100% DMSO before further dilution to 50×.
ASSAY PROCEDURE: The required volume of the 50× stock of test compound was added to the assay before a reaction mix containing the enzyme and substrate was added. The reaction was initiated by the addition of ATP at the selected concentration. There was no pre-incubation of the compound with the enzyme/substrate mix prior to ATP addition.
Results are expressed as kinase activity remaining, as a percentage of the DMSO control. This is calculated using the following formula: Mean of Sample Counts−Mean of Blank Counts/Mean of Control Counts
(§2) For IC50 determinations, data are analyzed using XLFit version 5.3 (ID Business Solutions). Sigmoidal dose-response (variable slope) curves are fit based on the mean result for each test concentration using non-linear regression analysis. Where the top and/or bottom of the curve fall >10% out with 100 and 0, respectively, either or both of these limits may be constrained at 100 and 0, provided that the QC criterion on R2 is met.

TNIK(h) = TNIK(h) (Homo sapiens (Human), UniProt Q9UKE5); assay: TNIK Human STE Kinase Enzymatic Radiometric Assay; format: biochemical; settings: ATP 70 μM; 40 min at room temperature; read-out: TNIK (IC50);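 also: remaining kinase activity relative to DMSO control, compound added without preincubation, reaction started with ATP, IC50 from variable-slope sigmoidal dose-response fit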
Experimental: as §1
INCUBATION: 40 min at Room temperature
COMPOUND DILUTION SCHEME: All compounds supplied were prepared to a working stock of 50× final assay concentration in 100% DMSO. Where appropriate, more concentrated stocks were diluted manually to 50× using 100% DMSO. Compounds supplied as powders were reconstituted to a 10 mM stock in 100% DMSO before further dilution to 50×. ASSAY PROCEDURE: The required volume of the 50× stock of test compound was added to the assay before a reaction mix containing the enzyme and substrate was added. The reaction was initiated by the addition of ATP at the selected concentration. There was no pre-incubation of the compound with the enzyme/substrate mix prior to ATP addition. […] Results are expressed as kinase activity remaining, as a percentage of the DMSO control. This is calculated using the following formula:
as §2

[2] = Metabolic stability in human liver microsomes; format: in vitro ADME; settings: LM Clint; 1 μM test compound, 0.5 mg protein/mL microsome, 37° C., up to 60 min;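 also: NADPH-supplemented human liver microsomes sampled at 0, 5, 10, 20, 30 and 60 min, parent compound quantified by LC-MS/MS, intrinsic clearance from first-order decay, no-cofactor incubation as control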
Experimental: Test Compound an Control Working Solution Preparation: Working solution: 5 μL of compound and control stock solution (10 mM in dimethyl sulfoxide (DMSO)) were diluted with 495 µL of acetonitrile (ACN) (intermediate solution concentration: 100 μM, 99% ACN).
Preparation Procedure: The appropriate amount of NADPH powder was weighed and diluted into a 10 mM MgCl2 solution (working solution concentration: 10 unit/mL; final concentration in reaction system: 1 unit/mL).
Preparation Procedure: The appropriate concentrations of microsome working solutions were prepared in 100 mM potassium phosphate buffer.
Stop Solution Preparation: Cold (4° C.) acetonitrile (ACN) containing 200 ng/mL tolbutamide and 200 ng/mL labetalol as internal standards (IS) was used as the stop solution.
Dilute liver microsomes to 0.56 mg/mL in 100 mM phosphate buffer.
Transfer 445 μL microsome working solutions (0.56 mg/mL) into pre-warmed ‘Incubation’ plates T60 and NCF60, Then pre-incubate ‘Incubation’ plates T60 and NCF60 for 10 min at 37° C. with constant shaking. Transfer 54 μL liver microsomes to blank plate, then add 6 μL NAPDH cofactor to blank plate, and then add 180 μL quenching solution to blank plate.
2.5.4 Add 5 μL compound working solution (100 μM) into ‘incubation’ plates (T60 and NCF60) containing microsomes and mix 3 times thoroughly.
For the NCF60 plate, add 50 μL of buffer and mix 3 times thoroughly. Start timing; plate will be incubated at 37° C. for 60 min while shaking.
For the T60 plate, mix 3 times thoroughly, and immediately remove 54 μL mixture for the 0-min time point to ‘Quenching’ plate. Then add 44 μL NAPDH cofactor to incubation plate (T60). Start timing; plate will be incubated at 37° C. for 60 min while shaking.
At 5, 10, 20, 30, and 60 min, add 180 μL quenching solution to ‘Quenching’ plates, mix once, and serially transfer 60 μL sample from T60 plate per time point to ‘Quenching’ plates.
For NCF60: mix once, and transfer 60 μL sample from the NCF60 incubation to ‘Quenching’ plate containing quenching solution at the 60-min time point.
All sampling plates are shaken for 10 min, then centrifuged at 4000 rpm for 20 minutes at 4° C.
Transfer 80 μL supernatant into 240 μL HPLC water, and mix by plate shaker for 10 min.
Each bioanalysis plate was sealed and shaken for 10 minutes prior to LC-MS/MS analysis.
The equation of first order kinetics was used to calculate T½ and Intrinsic clearance (CLint mic) in (L/min/mg).

MAP4K4 (h), sequence (O95819 whole entry): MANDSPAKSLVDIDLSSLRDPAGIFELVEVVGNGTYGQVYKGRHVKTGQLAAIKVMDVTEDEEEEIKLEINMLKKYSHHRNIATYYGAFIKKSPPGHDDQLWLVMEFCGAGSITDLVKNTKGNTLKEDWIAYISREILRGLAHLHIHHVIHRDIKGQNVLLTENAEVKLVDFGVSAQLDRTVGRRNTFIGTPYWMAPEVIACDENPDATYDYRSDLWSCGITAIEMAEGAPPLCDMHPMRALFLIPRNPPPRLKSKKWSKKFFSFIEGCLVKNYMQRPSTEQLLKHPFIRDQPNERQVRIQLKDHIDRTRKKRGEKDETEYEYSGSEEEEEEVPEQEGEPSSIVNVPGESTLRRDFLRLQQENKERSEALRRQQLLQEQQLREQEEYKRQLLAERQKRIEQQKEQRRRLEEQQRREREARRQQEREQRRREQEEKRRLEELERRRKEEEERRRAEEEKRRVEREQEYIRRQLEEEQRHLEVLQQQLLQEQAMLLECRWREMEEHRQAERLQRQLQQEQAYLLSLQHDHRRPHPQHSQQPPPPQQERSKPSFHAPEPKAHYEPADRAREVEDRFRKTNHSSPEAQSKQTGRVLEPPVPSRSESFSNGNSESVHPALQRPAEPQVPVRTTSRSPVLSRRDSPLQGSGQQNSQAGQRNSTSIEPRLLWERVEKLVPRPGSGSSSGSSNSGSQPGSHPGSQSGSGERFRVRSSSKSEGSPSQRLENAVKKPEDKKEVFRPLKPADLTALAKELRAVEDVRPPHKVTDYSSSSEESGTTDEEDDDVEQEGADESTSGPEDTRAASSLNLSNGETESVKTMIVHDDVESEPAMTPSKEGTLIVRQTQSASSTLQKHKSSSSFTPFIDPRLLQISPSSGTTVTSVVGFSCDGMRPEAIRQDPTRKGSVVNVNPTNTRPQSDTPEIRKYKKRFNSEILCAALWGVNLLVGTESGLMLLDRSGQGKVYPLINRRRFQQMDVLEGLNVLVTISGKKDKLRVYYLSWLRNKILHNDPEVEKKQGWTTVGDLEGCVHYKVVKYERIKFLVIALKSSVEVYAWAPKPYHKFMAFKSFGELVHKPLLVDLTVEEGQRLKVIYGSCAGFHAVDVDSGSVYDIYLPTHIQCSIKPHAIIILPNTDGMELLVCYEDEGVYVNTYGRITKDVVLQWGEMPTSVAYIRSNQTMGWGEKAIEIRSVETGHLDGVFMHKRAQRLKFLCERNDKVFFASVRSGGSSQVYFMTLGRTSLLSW
TNIK(h), sequence (Q9UKE5 whole entry): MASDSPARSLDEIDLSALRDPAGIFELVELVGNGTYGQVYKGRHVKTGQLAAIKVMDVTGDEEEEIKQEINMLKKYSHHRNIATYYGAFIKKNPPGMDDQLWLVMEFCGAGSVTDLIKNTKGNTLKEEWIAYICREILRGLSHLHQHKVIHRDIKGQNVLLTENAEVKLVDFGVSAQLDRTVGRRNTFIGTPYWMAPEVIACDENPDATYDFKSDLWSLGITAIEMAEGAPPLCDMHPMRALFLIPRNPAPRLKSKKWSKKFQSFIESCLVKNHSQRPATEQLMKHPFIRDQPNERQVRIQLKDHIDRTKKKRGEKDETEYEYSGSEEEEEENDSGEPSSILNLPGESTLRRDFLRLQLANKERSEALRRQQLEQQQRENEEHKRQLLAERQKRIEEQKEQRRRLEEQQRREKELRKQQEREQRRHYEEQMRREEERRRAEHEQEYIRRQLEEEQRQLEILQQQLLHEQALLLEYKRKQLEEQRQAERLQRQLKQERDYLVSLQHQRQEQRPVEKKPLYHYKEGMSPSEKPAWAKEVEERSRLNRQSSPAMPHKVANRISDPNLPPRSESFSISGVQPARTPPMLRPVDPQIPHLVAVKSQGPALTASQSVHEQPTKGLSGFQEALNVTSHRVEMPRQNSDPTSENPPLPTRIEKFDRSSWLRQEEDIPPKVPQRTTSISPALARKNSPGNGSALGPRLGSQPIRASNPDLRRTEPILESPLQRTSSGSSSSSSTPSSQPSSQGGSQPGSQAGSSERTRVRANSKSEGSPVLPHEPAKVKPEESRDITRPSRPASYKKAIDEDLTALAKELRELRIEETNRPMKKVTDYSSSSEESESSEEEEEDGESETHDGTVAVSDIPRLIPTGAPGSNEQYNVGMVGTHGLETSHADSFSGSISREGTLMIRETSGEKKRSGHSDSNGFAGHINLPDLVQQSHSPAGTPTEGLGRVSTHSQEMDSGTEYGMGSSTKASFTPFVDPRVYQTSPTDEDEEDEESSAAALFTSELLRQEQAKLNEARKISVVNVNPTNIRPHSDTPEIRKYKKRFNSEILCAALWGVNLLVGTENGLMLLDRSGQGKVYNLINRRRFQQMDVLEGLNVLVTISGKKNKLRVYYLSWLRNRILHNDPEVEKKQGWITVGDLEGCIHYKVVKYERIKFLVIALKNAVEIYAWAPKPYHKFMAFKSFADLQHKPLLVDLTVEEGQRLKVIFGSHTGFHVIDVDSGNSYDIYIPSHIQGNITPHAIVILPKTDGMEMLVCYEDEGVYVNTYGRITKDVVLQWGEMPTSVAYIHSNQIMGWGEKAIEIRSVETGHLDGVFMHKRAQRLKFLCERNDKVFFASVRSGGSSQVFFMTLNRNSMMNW

Row | Compound | IC50 [1] | IC50 (MAP4K4 (h)) | IC50 (TNIK(h)) | Human Liver Microsome (μM/min/mg) [2]
1 | O=C(Nc1ccccc1F)c1occc1-c1c(-c2cccnc2)ncn1C1CCCC1 [Compound 1] | > 1 nM | – | – | –
2 | O=C(Nc1ccccc1F)c1occc1-c1c(-c2ccc(F)cc2)ncn1CC1CCOC1 (centres unmarked) [Compound 4] | > 1 nM | – | – | –
3 | O=C(NC1CCOCC1)c1ccc(-c2c(-c3ccc(F)cc3)ncn2C2CCCC2)o1 [Compound 39] | > 1 nM | – | – | –
4 | CC(C)n1cnc(-c2ccc(F)cc2)c1-c1nc(C(=O)Nc2ccc(CCO)cc2)c[nH]1 [Compound 111, 5′-(4-fluorophenyl)-N-(4-(2-hydroxyethyl)phenyl)-3′-isopropyl-1H,3′H-[2,4′-biimidazole]-4-carboxamide] | 0.1 to 1 nM | > 120 nM | 12 to 120 nM | ++ (10-100 μM/min/mg as ++)
5 | CC(C)n1cnc(-c2ccc(F)cc2)c1-c1nc(C(=O)Nc2ccc(N(CCO)CCO)cc2)c[nH]1 [Compound 116, N-(4-(bis(2-hydroxyethyl)amino)phenyl)-5′-(4-fluorophenyl)-3′-isopropyl-1H,3′H-[2,4′-biimidazole]-4-carboxamide] | 0.1 to 1 nM | 12 to 120 nM | 12 to 120 nM | +++ (1-10 μM/min/mg as +++)
6 | CC(C)n1cnc(-c2ccc(F)cc2)c1-c1nc(C(=O)Nc2ccc(N3CCN(CCO)CC3)cc2)c[nH]1 [Compound 117, 5′-(4-fluorophenyl)-N-(4-(4-(2-hydroxyethyl)piperazin-1-yl)phenyl)-3′-isopropyl-1H,3′H-[2,4′-biimidazole]-4-carboxamide] | 0.1 to 1 nM | 12 to 120 nM | 12 to 120 nM | ++ (10-100 μM/min/mg as ++)
7 | CN1CCN(c2ccc(NC(=O)c3c[nH]c(-c4c(-c5ccc(F)cc5)ncn4CC(F)(F)F)n3)cc2)CC1 [Compound 120, 5′-(4-fluorophenyl)-N-(4-(4-methylpiperazin-1-yl)phenyl)-3′-(2,2,2-trifluoroethyl)-1H,3′H-[2,4′-biimidazole]-4-carboxamide] | < 0.1 nM | > 120 nM | 12 to 120 nM | ++ (10-100 μM/min/mg as ++)
8 | CC(C)n1cnc(-c2ccc(F)cc2)c1-c1ccc(C(=O)Nc2ccc(N3CCN(C)CC3)cc2)o1 [Compound 121, 5-(4-(4-fluorophenyl)-1-isopropyl-1H-imidazol-5-yl)-N-(4-(4-methylpiperazin-1-yl)phenyl)furan-2-carboxamide] | < 0.1 nM | 12 to 120 nM | 1 to 12 nM | + (>100 μM/min/mg as +)
9 | CC(C)n1cnc(-c2ccc(F)cc2)c1-c1ccc(C(=O)Nc2ccc(CCO)cc2)o1 [Compound 126, 5-(4-(4-fluorophenyl)-1-isopropyl-1H-imidazol-5-yl)-N-(4-(2-hydroxyethyl)phenyl)furan-2-carboxamide] | 0.1 to 1 nM | 12 to 120 nM | 12 to 120 nM | + (>100 μM/min/mg as +)
10 | CC(C)n1cnc(-c2ccc(F)cc2)c1-c1cccc(C(=O)Nc2ccc(N3CCN(C)CC3)cc2)n1 [Compound 127] | 0.1 to 1 nM | 1 to 12 nM | 1 to 12 nM | + (>100 μM/min/mg as +)
11 | CC(C)n1cnc(-c2ccc(F)cc2)c1-c1cccc(C(=O)Nc2ccc(N3CCN(CCO)CC3)cc2)n1 [Compound 128] | 0.1 to 1 nM | 1 to 12 nM | 1 to 12 nM | + (>100 μM/min/mg as +)
12 | CN1CCN(c2ccc(NC(=O)c3c[nH]c(-c4c(-c5ccc(F)cc5)ncn4C(F)F)n3)cc2)CC1 [Compound 130, 3′-(difluoromethyl)-5′-(4-fluorophenyl)-N-(4-(4-methylpiperazin-1-yl)phenyl)-1H,3′H-[2,4′-biimidazole]-4-carboxamide] | 0.1 to 1 nM | > 120 nM | 12 to 120 nM | ++ (10-100 μM/min/mg as ++)
13 | CC(C)n1cnc(-c2ccc(Cl)cc2)c1-c1nc(C(=O)Nc2ccc(CCC(=O)O)cc2)c[nH]1 [Compound 137, 3-(4-(5′-(4-chlorophenyl)-3′-isopropyl-1H,3′H-[2,4′-biimidazole]-4-carboxamido)phenyl)propanoic acid] | – | > 120 nM | 1 to 12 nM | +++ (1-10 μM/min/mg as +++)
14 | CC(C)n1cnc(-c2ccc(C(F)(F)F)cc2)c1-c1nc(C(=O)Nc2ccc(N3CCN(C)CC3)cc2)c[nH]1 [Compound 142, 3′-isopropyl-N-(4-(4-methylpiperazin-1-yl)phenyl)-5′-(4-(trifluoromethyl)phenyl)-1H,3′H-[2,4′-biimidazole]-4-carboxamide] | – | > 120 nM | > 120 nM | + (>100 μM/min/mg as +)
15 | O=C(Nc1ccc(N2CCN(CCO)CC2)cc1)c1c[nH]c(-c2c(-c3ccc(F)cc3)ncn2[C@H]2CC[C@H](O)CC2)n1 [Compound 158, 5′-(4-fluorophenyl)-3′-((1r,4r)-4-hydroxycyclohexyl)-N-(4-(4-(2-hydroxyethyl)piperazin-1-yl)phenyl)-1H,3′H-[2,4′-biimidazole]-4-carboxamide] | – | 12 to 120 nM | 1 to 12 nM | +++ (1-10 μM/min/mg as +++)
16 | C[N+]1([O-])CCN(c2ccc(NC(=O)c3c[nH]c(-c4c(-c5ccc(F)cc5)ncn4CC(F)(F)F)n3)cc2)CC1 [Compound 166, 4-(4-(5′-(4-fluorophenyl)-3′-(2,2,2-trifluoroethyl)-1H,3′H-[2,4′-biimidazole]-4-carboxamido)phenyl)-1-methylpiperazine 1-oxide] | – | > 120 nM | > 120 nM | +++ (1-10 μM/min/mg as +++)
17 | CN1CCN(c2ccc(NC(=O)c3c[nH]c(-c4c(-c5ccc(F)cc5)ncn4C4CCC(O)CC4)n3)cc2)CC1 (centres unmarked) [Compound 172] | < 0.1 nM | – | – | +++ (1-10 μM/min/mg as +++)
18 | CC(C)n1cnc(-c2ccc(F)cc2)c1-c1nc(C(=O)Nc2ccc(N3CCNCC3)cc2)c[nH]1 [Compound 181, 5′-(4-fluorophenyl)-3′-isopropyl-N-(4-(piperazin-1-yl)phenyl)-1H,3′H-[2,4′-biimidazole]-4-carboxamide] | – | 12 to 120 nM | 12 to 120 nM | ++ (10-100 μM/min/mg as ++)
19 | CC(C)n1cnc(-c2ccc(F)cc2)c1-c1nc(C(=O)Nc2ccc(N3CCN(C)C(=O)C3)cc2)c[nH]1 [Compound 185, 5′-(4-fluorophenyl)-3′-isopropyl-N-(4-(4-methyl-3-oxopiperazin-1-yl)phenyl)-1H,3′H-[2,4′-biimidazole]-4-carboxamide] | 0.1 to 1 nM | 12 to 120 nM | 12 to 120 nM | –
20 | CC(=O)N1CCN(c2ccc(NC(=O)c3c[nH]c(-c4c(-c5ccc(F)cc5)ncn4C(C)C)n3)cc2)CC1 [Compound 188, N-(4-(4-acetylpiperazin-1-yl)phenyl)-5′-(4-fluorophenyl)-3′-isopropyl-1H,3′H-[2,4′-biimidazole]-4-carboxamide] | 0.1 to 1 nM | 12 to 120 nM | 1 to 12 nM | –
21 | CC(C)n1cnc(-c2ccc(F)cc2)c1-c1nc(C(=O)Nc2ccc(N3CCN(CC(F)(F)F)CC3)cc2)c[nH]1 [Compound 189, 5′-(4-fluorophenyl)-3′-isopropyl-N-(4-(4-(2,2,2-trifluoroethyl)piperazin-1-yl)phenyl)-1H,3′H-[2,4′-biimidazole]-4-carboxamide] | 0.1 to 1 nM | 12 to 120 nM | 12 to 120 nM | –
22 | CC1CN(c2ccc(NC(=O)c3c[nH]c(-c4c(-c5ccc(F)cc5)ncn4CC(F)(F)F)n3)cc2)CC(C)N1C (centres unmarked) [Compound 190, 5′-(4-fluorophenyl)-3′-(2,2,2-trifluoroethyl)-N-(4-(3,4,5-trimethylpiperazin-1-yl)phenyl)-1H,3′H-[2,4′-biimidazole]-4-carboxamide] | < 0.1 nM | 12 to 120 nM | 1 to 12 nM | –
23 | CC(=O)N1CCN(c2ccc(NC(=O)c3c[nH]c(-c4c(-c5ccc(F)cc5)ncn4CC(F)(F)F)n3)cc2)CC1 [Compound 191, N-(4-(4-acetylpiperazin-1-yl)phenyl)-5′-(4-fluorophenyl)-3′-(2,2,2-trifluoroethyl)-1H,3′H-[2,4′-biimidazole]-4-carboxamide] | 0.1 to 1 nM | 12 to 120 nM | 12 to 120 nM | –
24 | O=C(Nc1ccc(N2CCN(CC(F)(F)F)CC2)cc1)c1c[nH]c(-c2c(-c3ccc(F)cc3)ncn2CC(F)(F)F)n1 [Compound 192, 5′-(4-fluorophenyl)-3′-(2,2,2-trifluoroethyl)-N-(4-(4-(2,2,2-trifluoroethyl)piperazin-1-yl)phenyl)-1H,3′H-[2,4′-biimidazole]-4-carboxamide] | < 0.1 nM | > 120 nM | 12 to 120 nM | –
25 | CN1[C@@H]2CC[C@H]1CN(c1ccc(NC(=O)c3c[nH]c(-c4c(-c5ccc(F)cc5)ncn4CC(F)(F)F)n3)cc1)C2 [Compound 193, 5′-(4-fluorophenyl)-N-(4-((1R,5S)-8-methyl-3,8-diazabicyclo[3.2.1]octan-3-yl)phenyl)-3′-(2,2,2-trifluoroethyl)-1H,3′H-[2,4′-biimidazole]-4-carboxamide] | < 0.1 nM | 12 to 120 nM | 12 to 120 nM | –
26 | CN1CCN(c2ccc(NC(=O)c3c[nH]c(-c4c(-c5ccc(F)cc5)ncn4CC(F)(F)F)n3)cc2)CC1=O [Compound 194, 5′-(4-fluorophenyl)-N-(4-(4-methyl-3-oxopiperazin-1-yl)phenyl)-3′-(2,2,2-trifluoroethyl)-1H,3′H-[2,4′-biimidazole]-4-carboxamide] | 0.1 to 1 nM | > 120 nM | 12 to 120 nM | –
27 | CC1CN(c2ccc(NC(=O)c3c[nH]c(-c4c(-c5ccc(F)cc5)ncn4C(C)C)n3)cc2)CC(C)N1C (centres unmarked) [Compound 196, 5′-(4-fluorophenyl)-3′-isopropyl-N-(4-(3,4,5-trimethylpiperazin-1-yl)phenyl)-1H,3′H-[2,4′-biimidazole]-4-carboxamide] | < 0.1 nM | 12 to 120 nM | 12 to 120 nM | –
